# Reference: patent EP1189687B1, “FLOWABLE W/O TYPE EMULSIONS WITH A HIGH WATER CONTENT CONTAINING MEDIUM POLAR LIPIDS” (Beiersdorf AG, priority 1999, dated 2000)
# Experiment: Interfacial tension of medium-polar lipids against water (measure of polarity)
# Assay type: physicochemical
# Details: taken as polarity index of the lipid (the lower the tension, the more polar)
# Source text: Öle und Fette unterscheiden sich unter anderem in ihrer Polarität, welche schwierig zu definieren ist. Es wurde bereits vorgeschlagen, die Grenzflächenspannung gegenüber Wasser als Maß für den Polaritätsindex eines Öls bzw. einer Ölphase anzunehmen. Dabei gilt, daß die Polarität der betreffenden Ölphase umso größer ist, je niedriger die Grenzflächenspannung zwischen dieser Ölphase und Wasser ist. Erfindungsgemäß wird die Grenzflächenspannung als ein mögliches Maß für die Polarität einer gegebenen Ölkomponente angesehen.
# Die Grenzflächenspannung ist diejenige Kraft, die an einer gedachten, in der Grenzfläche zwischen zwei Phasen befindlichen Linie der Länge von einem Meter wirkt. Die physikalische Einheit für diese Grenzflächenspannung errechnet sich klassisch nach der Beziehung Kraft/Länge und wird gewöhnlich in mN/m (Millinewton geteilt durch Meter) wiedergegeben. Sie hat positives Vorzeichen, wenn sie das Bestreben hat, die Grenzfläche zu verkleinern. Im umgekehrten Falle hat sie negatives Vorzeichen.
# Die nachfolgende Tabelle 1 führt mittelpolare Lipide auf, die als Einzelsubstanzen oder auch im Gemisch untereinander erfindungsgemäß vorteilhaft sind. Die betreffenden Grenzflächenspannungen gegen Wasser sind in der letzten Spalte angegeben. Es ist jedoch auch vorteilhaft, Gemische aus höher- und niederpolaren und dergleichen zu verwenden, sofern gewährleistet ist, daß die Gesamtpolarität der Ölphase im beanspruchten Bereich liegt. Tabelle 1
row,Structure (SMILES),Grenzflächenspannung gegen Wasser
1,"CCCCCCCCCCCCCCCCCC(=O)OC(C)C [Isopropylstearal, Isopropyl Stearate]","21,9 mN/m"
2,"CCCCCCCCCCCCCCCCCC(=O)OCCCCCCCC [Cetiol® 868, Octyl Stearate]","28,4 mN/m"
3,"CCCCCCCCCCCCCC(=O)OCC(CCCCCCCC)CCCCCCCCCC (centres unmarked) [MOD, Octyldodeceyl Myristate]","22,1 mN/m"
4,"CCCCCCCCC(CO)CCCCCC (centres unmarked) [Isofol® 16, Hexyl Decanol]","24,3 mN/m"
5,"CCCCCCCCCCC(CO)CCCCCCCC (centres unmarked) [Eutanol® G, Octyldodecanol]","24,8 mN/m"

# Other lines, results leading:
row,Grenzflächenspannung gegen Wasser,Structure (SMILES)
1,"29,7 mN/m","CCCCCCCCOC(=O)CCCCCCCCCCCCCCC(C)C [Prisorine® 2036, Octyl Isostearate]"
2,"28,7 mN/m","CCCCCCCCCCCCCCCCCCOC(=O)CCCCCC [Tegosoft® SH, Stearyl Heptanoate]"
3,"20,2 mN/m","CCCCCCCC(=O)OCC(COC(=O)CCCCCCC)OC(=O)CCCCCCC [Trivent® OCG, Tricaprylin]"
